Experimental data taken from PubChem BioAssay AID652218 (The Scripps Research Institute Molecular Screening Center, 2013).
Calls of active or inactive are those of the source.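 Rule for the calls: active = inhibition of the phosphatase PP1 of at least 70% at 50 µM; inactive = the rest.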

What follows are molecules tested against Serine/threonine-protein phosphatase PP1-alpha catalytic subunit (Homo sapiens) (UniProt P62136) (assay: single-dose PP1alpha phosphatase inhibition – biochemical, fluorescence, OMFP substrate, powder samples, set 2, confirmation (AID 652218)). Settings: purified PP1alpha, OMFP dephosphorylation fluorescence; at 50 µM; active compounds read high.
Chain of Serine/threonine-protein phosphatase PP1-alpha catalytic subunit (Homo sapiens) (P62136 whole entry, looked up): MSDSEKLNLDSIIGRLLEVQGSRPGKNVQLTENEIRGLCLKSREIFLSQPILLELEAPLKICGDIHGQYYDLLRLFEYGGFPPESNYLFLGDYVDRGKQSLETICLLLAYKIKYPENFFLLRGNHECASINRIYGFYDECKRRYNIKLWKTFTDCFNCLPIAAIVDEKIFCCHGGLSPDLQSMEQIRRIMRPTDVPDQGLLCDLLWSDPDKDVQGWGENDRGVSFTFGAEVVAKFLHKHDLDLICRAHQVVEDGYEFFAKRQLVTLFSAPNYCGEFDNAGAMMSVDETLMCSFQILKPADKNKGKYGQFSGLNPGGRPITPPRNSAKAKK

Structure (SMILES)	inhibition
COc1ccnc(C(c2ccc3cccnc3c2O)N2CCN(C)CC2)c1 (stereo unspecified)	104%
Oc1c(C(c2ccccn2)N2CCC(Cc3ccccc3)CC2)cc(Cl)c2cccnc12 (stereo unspecified)	89.3%
CN1CCN(C(c2ccc3cccnc3c2O)c2ncccc2C(F)(F)F)CC1 (stereo unspecified)	102%
CN1CCN(Cc2cc(Cl)c3cccnc3c2O)CC1	73.1%
Oc1c(CN2CCN(c3ccccn3)CC2)cc(Cl)c2cccnc12	102%
Cc1ccc2ccc(C(c3ccccn3)N3CCN(C)CC3)c(O)c2n1 (stereo unspecified)	101%
CCOC(c1ccccn1)c1cc(Cl)c2cccnc2c1O (stereo unspecified)	99%
Oc1c(Cc2ccccn2)ccc2cccnc12	102%
CN1CCN(C(c2ccccn2)c2cc(Cl)ccc2O)CC1 (stereo unspecified)	6.19% (inactive)
Oc1c(C(NC2CCCCC2)c2ccccn2)ccc2cccnc12 (stereo unspecified)	106%
Cc1ccc(C(c2ccc3cccnc3c2O)N2CCN(C)CC2)nc1 (stereo unspecified)	104%
COc1cccc(C(c2ccc3cccnc3c2O)N2CCN(C)CC2)n1 (stereo unspecified)	107%
COc1ccc(C(c2ccc3cccnc3c2O)N2CCN(C)CC2)nc1 (stereo unspecified)	97.9%
CN1CCC(NC(c2ccccn2)c2ccc3cccnc3c2O)CC1 (stereo unspecified)	97.3%
Cc1cccc(C(c2ccc3cccnc3c2O)N2CCN(C)CC2)n1 (stereo unspecified)	103%
CN1CCN(C(c2ncccn2)c2ccc3cccnc3c2O)CC1 (stereo unspecified)	93.8%
Cc1cccnc1C(c1ccc2cccnc2c1O)N1CCN(C)CC1 (stereo unspecified)	99.9%
COCOc1c(C(c2ccccn2)N2CCN(C)CC2)ccc2cccnc12 (stereo unspecified)	66.1% (inactive)
Oc1c(C(c2ccccn2)N2CCCC2)ccc2cccnc12 (stereo unspecified)	107%
CN1CCN(C(c2ccc(C(F)(F)F)cn2)c2ccc3cccnc3c2O)CC1 (stereo unspecified)	99.8%
Cc1ccnc(C(c2ccc3cccnc3c2O)N2CCN(C)CC2)c1 (stereo unspecified)	104%

The next lines start with the values.

inhibition	Structure (SMILES)
45% (inactive)	CN1CCN(C(c2ccncc2)c2cc(Cl)c3cccnc3c2O)CC1 (stereo unspecified)
98.4%	CN1CCN(C(c2ccccn2)c2cc(Cl)c3cccnc3c2O)CC1 (stereo unspecified)
104%	CC1CCN(C(c2ccccn2)c2cc(Cl)c3cccnc3c2O)CC1 (stereo unspecified)
100%	CN1CCN(C(c2ccccn2)c2ccc3cccnc3c2O)CC1 (stereo unspecified)
40% (inactive)	CN1CCN(C(c2cccnc2)c2cc(Cl)c3cccnc3c2O)CC1 (stereo unspecified)
83.5%	Oc1c(C(c2ccccn2)N2CCNCC2)cc(Cl)c2cccnc12 (stereo unspecified)
27.2% (inactive)	CN1CCN(C(c2ccccn2)c2cc(Cl)c3ccccc3c2O)CC1 (stereo unspecified)
105%	Oc1c(C(c2ccccn2)N2CCOCC2)cc(Cl)c2cccnc12 (stereo unspecified)
100%	Oc1c(CN2CCN(c3ccccc3)CC2)cc(Cl)c2cccnc12
79.1%	CN1CCN(C(c2ccccc2)c2cc(Cl)c3cccnc3c2O)CC1 (stereo unspecified)
103%	CN1CCN(C(c2nccs2)c2cc(Cl)c3cccnc3c2O)CC1 (stereo unspecified)
88.6%	CN1CCN(C(c2cccs2)c2cc(Cl)c3cccnc3c2O)CC1 (stereo unspecified)
98.4%	CCN1CCN(C(c2ccccn2)c2cc(Cl)c3cccnc3c2O)CC1 (stereo unspecified)
101%	Oc1c(C(c2ccccn2)N2CCN(c3ccccc3F)CC2)cc(Cl)c2cccnc12 (stereo unspecified)
90.5%	CC(C)(C)OC(=O)N1CCN(C(c2ccccn2)c2cc(Cl)c3cccnc3c2O)CC1 (stereo unspecified)
